In patent publication US7476316B2, “Molecularly imprinted polymers (MIPS) for the selective removal of inorganic contaminants from liquids” (priority 2005, dated 2009):

Legend:
[1] = cited from earlier work
[2] = removal of arsenate from water by ligand-based MIP; details: ligand used in suspension polymerization MIP
Excerpt: (§1) General classes of cationic ligands that can be used in the present method include, but are not limited to, cationic oxygen containing heterocyclics, cationic nitrogen containing heterocyclics, cationic sulfur containing heterocyclics, cationic phosphorous containing heterocyclics, ammonium salts, phosphonium salts, acylinium salts, metallocenium salts, amidinium salts, imminium salts, and trityl salts. In one embodiment, the ligand can be 4-vinylbenzyl-N,N-dimethyl-N-decylammonium, 4-vinylbenzyl-N-decyl-N-methylglucammonium, N-methyl vinylpyridinium, or 4-vinylbenzyl-N,N-dimethyl-D-glucammonium.

[3] = removal of gold-containing cations from water by ligand-based MIP; details: ligand used in cationic molecularly imprinted polymer
Excerpt: as §1

Compound	miscibility with water [1]	removal of arsenate from water [2]	other results
OCCCCCO [1,5-pentanediol]	completely miscible	–	–
C=Cc1ccc(C[N+](C)(C)CCCCCCCCCC)cc1.[Cl-] [Example 1, N-(4-vinylbenzyl)-N-decyl-N,N-dimethylammonium chloride]	–	good results	removal of gold-containing cations from water [3]: particularly good results
CCCCCO [Example 1-pentanol, 1-pentanol]	–	–	soluble in water ([1]; in water): 2.3 % weight/weight
C=Cc1ccc(C[N+](C)(CCCCCCCCCC)C[C@H](O)[C@@H](O)[C@H](O)[C@H](O)CO)cc1.[I-] (stereo partly drawn) [Example 3, N-(4-Vinylbenzyl)-N-decyl-N-methylglucammonium iodide]	–	good results	–
CCCCC [n-pentane]	completely immiscible	–	–
